In patent US4980377A, “1-(aminophenyl)-2-aminopropanone derivatives” (Laboratoire L. Lafon, priority 1984, dated 1990):
Entries after “also recorded” stand apart in the source; their conditions may differ. Counter-ions that a name gives are not always drawn.

Experiments:
[1] = tested on: nigrostriatal dopaminergic system; assay: Interaction with alpha-methyltyrosine on stereotypies (difference from amphetamine); settings: α-methyltyrosine (catecholamine synthesis blocked)
CNS [2] = assay: Neuropsychopharmacological profile as a whole; assay type: in vivo, mice and rats
Description: (§1) In the neuropsychopharmacological study which follows, a solution of CRL 41 153 in distilled water (pH 1.5) was administered intraperitoneally in a volume of 20 ml/kg to male mice and 5 ml/kg to male rats.

mice [3] = assay: Motility reduced by hypoxic aggression; assay type: in vivo, mouse; settings: i.p.
Description: Half an hour after they have received CRL 41 153, the mice (10 per dose, 20 control animals) are subjected to acute hypobaric anoxia [pressure reduction of 600 mm Hg (i.e. about 8×10^4 Pa) in 90 seconds; release of vacuum in 45 seconds] and are then placed in an actimeter, where their motility is recorded for 10 minutes.

rats [4] = assay: Interaction with amphetamine; assay type: in vivo, rat; settings: i.p.
Description: Amphetamine (2 mg/kg) is injected intraperitoneally into groups of 6 rats 30 minutes after the administration of CRL 41 153. […] 4 mg/kg and 16 mg/kg, CRL 41 153 potentiates the intensity and duration of the stereotypies induced by amphetamine.

mice [5] = assay: Interaction with oxotremorine; assay type: in vivo, mouse; settings: i.p.
Description: CRL 41 153 is administered to groups of 6 mice 0.5 hour before the intraperitoneal injection of 0.5 mg/kg of oxotremorine.

[6] = tested on: gravid White New Zealand female rabbits; assay: Teratogenicity in gravid White New Zealand rabbits; assay type: in vivo, rabbit; settings: day 5 to day 18 of gestation; for Affected foetuses, %: normal limit 1.5%
Summary of the method: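 Fetuses harvested by cesarean on gestation day 29 were scored for number and for any malformation (limb blockade, anury, tail or skull defects, exencephaly).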

male mice = assay: Acute toxicity by intraperitoneal administration; assay type: in vivo, mouse; settings: i.p.
Description: as §1

mice [7] = assay: Overall behavior and reactivities in mice; assay type: in vivo, mouse; settings: i.p.
Description: as §1
Groups of three animals are observed before and then 0.25 hour, 0.50 hour, 1 hour, 2 hours, 3 hours and 24 hours after the administration of CRL 41 153.

CNS [8] = assay: Complementary tests by oral (gastric) administration; assay type: in vivo
mice [9] = assay: Asphyxiant anoxia (gallamine triiodoethylate); assay type: in vivo, mouse; settings: i.p., curarizing agent
Description: Groups of 10 mice receive CRL 41 153 half an hour before the intraperitoneal administration of 32 mg/kg of gallamine triiodoethylate (reference curarizing agent).

mice [10] = assay: Four plate test, traction and electric shock; assay type: in vivo, mouse; settings: i.p.
Description: The test is performed on groups of 10 mice 30 minutes after the administration of CRL 41 153.

mice [11] = assay: Motility reduced by habituation to the enclosure; assay type: in vivo, mouse; settings: i.p.
Description: After they have stayed In the actimeters for 18 hours, (he mice (6 per dose, 12 control animals) receive CRL 41 153. They are immediately returned to their respective enclosures and, half an hour later, their motility is recorded for 30 minutes.

[12] = pH of solutions in distilled water; assay type: physicochemical; settings: administered solution in distilled water, concentration not given
Description: The neuropsychopharmacological study was undertaken according to the procedures described above for CRL 41 153, CRL 41 213 being adminstered intraperitoneally, in solution in distilled water, in a volume of 20 ml/kg to male mice and a volume of 5 ml/kg to male rats, and the pH of the injected solution varying with the concentration of CRL 41 213 according to the data given in Table II below.

mice [13] = assay: Interaction with barbital; assay type: in vivo, mouse; settings: i.p., barbital 220 mg/kg
Description: Half an hour after the administration of CRL 41 153, groups of 10 mice receive an intraperitoneal injection of barbital (220 mg/kg).

mice [14] = assay: Spontaneous motility; assay type: in vivo, mouse; settings: i.p.
Description: 0.5 hour after they have received CRL 41 153, the mice (6 per dose, 12 control animals) are placed in an actimeter, where their motility is recorded for 30 minutes.

rats [15] = assay: Interaction with apomorphine in rats; assay type: in vivo, rat; settings: i.p.
Description: CRL 41 153 is administered to groups of 6 rats 0.5 hour before the subcutaneous injection of 0.5 mg/kg of apomorphine.

mice [16] = assay: Behavioral despair; assay type: in vivo, mouse; settings: forcibly immersed mice, i.p.
From the text: Half an hour after they have received CRL 41 153, groups of 6 mice are placed in a beaker filled with water to a height of 6 cm. The total period of immobility between the 2nd and 6th minutes following immersion is noted.

mice [17] = assay: Interaction with apomorphine in mice; assay type: in vivo, mouse; settings: i.p.
Description: Groups of 6 mice receive CRL 41 153 0.5 hour before the subcutaneous injection of 1 or 16 mg/kg of apomorphine.

For `CC(C)NC(C)C(=O)c1ccc(N)cc1` (centres unmarked) [CRL 41 153, 1-(4-aminophenyl)-2-isopropylaminopropanone dihydrochloride], the “Effect of alpha-methyltyrosine on the stereotypies induced by the substance” value [1] was “only reduces them”, the “Anticonvulsant effects (overall)” value (CNS [2]; conclusion of the tests) was “anticonvulsant effects: at a high dose” and the “Antidepressant effects (overall)” value (CNS [2]; conclusion of the tests) was “behaves as an antidepressant for the CNS”. For the same molecule, the “Stimulant effects (overall)” value (CNS [2]; conclusion of the tests) was “distinct stimulant component”, the “α-adrenergic stimulant effects (overall)” value (CNS [2]; conclusion of the tests) was “peripheral α-adrenergic stimulant effects” and the “Peripheral α-adrenergic signs (mydriasis, salivation, lacrimation, exophthalmos)” value (CNS [2]; species and dose not stated) was “mydriasis (with neither piloerection nor salivation)”. For the same molecule, the “Motor recovery of mice after hypobaric hypoxia” value (mice [3]) was “as from a dose of 0.5 mg/kg, CRL 41 153 causes a distinct improvement in the motor recovery”, the “Effect on stereotypies induced by amphetamine” value (rats [4]) was “at doses of 1 mg/kg. 4 mg/kg and 16 mg/kg, CRL 41 153 potentiates the intensity and duration of the stereotypies induced by amphetamine” and the “Effect on hypothermic action of oxotremorine” value (mice [5]) was “at doses of 2 mg/kg, 8 mg/kg and 32 mg/kg, CRL 41 153 opposes the hypothermic action of oxotremorine”. The “Effect on trembling induced by oxotremorine” value (mice [5]) was “at doses of 8 mg/kg and 32 mg/kg, CRL 41 153 partially antagonizes the trembling induced by oxotremorine”, the “Action on the peripheral cholinergic symptoms” value (mice [5]; oxotremorine) was “moderate α-adrenergic stimulant effect” and the “Affected foetuses, number” value ([6]; 5 mg/kg daily) was 0. For the same molecule, the “Total foetuses (live)” value ([6]; 5 mg/kg daily) was 90, the “Affected foetuses, %” value ([6]; 5 mg/kg daily) was 0% and the “Affected foetuses, number” value ([6]; 10 mg/kg daily) was 1. The “Total foetuses (live)” value ([6]; 10 mg/kg daily) was 88, the “Affected foetuses, %” value ([6]; 10 mg/kg daily) was 1.13% and the “Affected foetuses, number” value ([6]; 50 mg/kg daily) was 0. For the same molecule, the “Total foetuses (live)” value ([6]; 50 mg/kg daily) was 93, the “Affected foetuses, %” value ([6]; 50 mg/kg daily) was 0% and the “LD0 (maximum non-lethal dose)” value (male mice) was “greater than 64 mg/kg”. For the same molecule, the LD60 (male mice) was “about 128 mg/kg”, the Observed symptoms (mice [7]; 0.5 mg/kg) was “no particular symptoms” and the Observed symptoms (mice [7]; 2 mg/kg, dihydrochloride) was “excitation of low intensity 0.5 hour after administration; also recorded: stereotypies for 1 hour; also recorded: an increase in the fear reaction (for 1 hour) and in the reactivity to touch (2 to 3 hours after administration)”. The Observed symptoms (mice [7]; 8 mg/kg, dihydrochloride) was “excitation for 3 hours; also recorded: an increase in the fear reaction (for 3 hours) and in the reactivity to touch (for 24 hours)”, the “Hyperthermia (temperature change)” value (mice [7]; 32 mg/kg, 0.5 hour after administration) was “+1.1 °C” and the Observed symptoms (mice [7]; 32 mg/kg, dihydrochloride) was “excitation and stereotypies for 3 hours; also recorded: an increase in the fear reaction (for 2 hours) and in the reactivity to touch (for 24 hours); also recorded: moderate mydriasis”. The “Hypothermia induced by apomorphine” value (CNS [8]; gastric) was “antagonism of the hypothermia induced by apomorphine”, the Motility (CNS [8]; gastric) was “hypermotility” and the “Sleep induced by barbital” value (CNS [8]; gastric) was “reduction in the sleep induced by barbital”. For the same molecule, the “Action on gastric (oral) administration compared with intraperitoneal” value (CNS [8]; gastric vs i.p., dihydrochloride) was “very active substance; also recorded: same types of action on gastric administration as after intraperitoneal administration”, the minimal effective dose (CNS [8]; po, gastric, read-out: Dose as from which antidepressant and stimulant and/or arousing effects appear) was ≥ 4 mg/kg and the “Time taken for convulsions to occur” value (mice [9]) was “at a dose of 32 mg/kg, CRL 41 153 reduces the time taken for convulsions to occur”. The “Time taken for death to occur” value (mice [9]) was “does not change the time taken for death to occur”, the “Effect on convulsant effects of electric shock” value (mice [10]) was “at high doses, CRL 41 153 antagonizes the convulsant effects of electric shock” and the “Motor activity of mice accustomed to their enclosure” value (mice [11]) was “causes a distinct resumption in the motor activity of mice accustomed to their enclosure”. For the same molecule, the pH [12] was 1.5, the “Duration of the sleep induced by barbital” value (mice [13]) was “reduces the duration of the sleep induced by barbital (total antagonism is obtained at doses of 8 mg/kg and 32 mg/kg)” and the “Time taken to fall asleep (barbital)” value (mice [13]) was “at doses of 0.5 to 32 mg/kg, CRL 41 153 increases the time taken to fall asleep”. The Spontaneous motor activity (mice [14]) was “increases the spontaneous motor activity of mice”, the “Effect on stereotypies induced by apomorphine” value (rats [15]) was “as from a dose of 0.5 mg/kg, CRL 41 153 potentiates the stereotypies induced by apomorphine” and the “Period of immobility due to despair” value (mice [16]) was “at doses greater than or equal to 0.5 mg/kg, CRL 41 153 reduces the period of immobility”. The “Effect on hypothermia induced by apomorphine” value (mice [17]) was “at doses of 2 mg/kg, 8 mg/kg and 32 mg/kg, CRL 41 153 (which is hyperthermic at the said doses) opposes the hypothermia induced by apomorphine” and the “Effect on righting behavior and stereotypies induced by apomorphine” value (mice [17]) was “without modifying the righting behavior and stereotypy behavior”.
